Source: US8530511B2, “Administration of dithiolane compounds for photoprotecting the skin” (L'Oreal, priority 2008, dated 2013)
Where “and” joins values, the source holds several entries; their conditions need not be identical. Identical values can stand only once.

Legend:
HaCaT cells = test: MCB test on HaCaT: intracellular GSH level after UV daylight (UV-DL) exposure; type: cell-based, human; conditions: for activity at 100 µM / inhibition at 100 µM / activity at 30 µM / inhibition at 30 µM: Homo sapiens, t=6 hours after exposure; for activity at 100 µM / activity at 30 µM: GSH-monochlorobimane fluorescence, HaCaT pretreated and exposed to UV-DL, read-out: % fluo; for inhibition at 100 µM / inhibition at 30 µM: against UV-DL-induced depletion of GSH, read-out: % protection; for inhibition at 100 µM / inhibition at 30 µM / protection against the UV-DL-induced depletion of GSH: HaCaT
Procedure: The study consisted in evaluating at the cellular level the protective effect of the reference molecule, lipoic acid, and also of lipoic acid derivatives according to the invention, with respect to the UV-DL-induced depletion of intracellular GSH.
To do this, HaCaT cells were exposed to UV daylight (UV-DL). The level of intracellular GSH was then measured, thus allowing evaluation of the possible protection afforded by the addition to the culture medium of the lipoic acid derivatives according to the invention.
UV daylight corresponds to the radiation of non-zenithal sunlight and to an average spectral illumination: it […] the radiation received by the skin of an individual in the course of a day and not solely to that corresponding to exposure to zenithal sunlight. Devices for reproducing this radiation are described in FR 2,863,356. The evaluation technique uses a fluorescent probe, monochlorobimane (MCB). […] The specificity of MCB towards GSH in our keratinocyte model (HaCaT line) was confirmed previously. Pretreatment of cells with the reference molecule, lipoic acid, for 24 hours at 1 mM affords approximately 100% protection against the UV-DL-induced depletion of GSH (see FIG. 1 showing the evaluation of the protective effect of lipoic acid at 1 mM in the MCB test on HaCaT: the measurement of the level of intracellular GSH is performed on keratinocytes that are or are not pretreated with lipoic acid at 1 mM and exposed to UV-DL at t=0, t=6 hours and t=24 hours after the exposure to UV-DL); this protection is about 83% at 500 μM and about 10% at 100 μM.
Evaluation of the protective effect of compound 1 at 100 μM and at 30 μM of compounds 9, 10, 2, 13, 14, 12, 24, 26 and 27 is performed in the MCB test on HaCaT: evaluation of the protective effect of the silyl dithiolane compounds of WO 2008/058 999 at 100 μM is also performed in the MCB test on HaCaT: the compound 5-(1,2-dithiolan-3-yl)-N-[3-(trimethylsilyl)propyl]pentanamide and the compound (trimethylsilyl)methyl 5-(1,2-dithiolan-3-yl)pentanoate. Measurement of the intracellular level of GSH is performed on keratinocytes that have or have not been pretreated with the active agents and exposed to UV-DL, t=6 hours after the exposure to UV-DL). The results are given in the graphs in FIGS. 2 and 3.

[1] = test system: normal human fibroblasts (NHF); test: Comet test: UV-A-induced DNA damage in normal human fibroblasts; type: cell-based; conditions: 24 hours contact, UV-A = 30 min
Excerpt: Solar UV is capable of giving rise to extensive oxidative damage in skin cells, and especially in DNA. The nucleic acids absorb the UV-B photons, thus inducing DNA damage directly. Although UV-A is not directly absorbed by DNA, it has a genotoxic action mediated by reactive oxygen species. The comet test makes it possible to quantify the UV-induced DNA damage (in this case UV-A): the breaking of strands and oxidative DNA lesions (alkali-labile sites cleaved under alkaline conditions) are detected. The principle of this test is based on the capacity of denatured and cleaved DNA fragments to migrate outside the cell nuclei, under the influence of an electric field, whereas undamaged DNA remains confined in the nucleus. The damaged DNA fragments form a trail behind the cell nucleus. The cells then take the appearance of “comets”. The “tail” of each comet is proportionately larger and stronger the greater the DNA damage incurred. (Alapetite C. et al., 1996, Int. J. Rad. Bio.; Klaude M, et al., 1996, Mut. Res.; Lehmann J. et al., 1998, Mut. Res.; Singh N P. et al., 1988, Exp. Cell Res.).
The study consisted in evaluating the photoprotective effect of two molecules with respect to UV-A-induced DNA damage. To do this, normal human fibroblasts (NHF) were placed in contact with the active agents for 24 hours. The cells were then detached, included in an agarose gel and then deposited on a microscope slide. Following the UV-A exposure (for 30 minutes), the cells were subjected to cell lysis (so as to keep intact only the genetic material), to a DNA-denaturing step and then to electrophoresis to make the damaged DNA migrate. The level of damaged DNA was measured using a fluorescence microscope combined with specialized image analysis software.

For `C[Si](C)(C)CCCNC(=O)CCCCC1CCSS1` (stereo not shown) [5-(1,2-dithiolan-3-yl)-N-[3-(trimethylsilyl)propyl]pentanamide, reference compound], which activity at 100 µM (HaCaT cells) is on record?
Its activity at 100 µM is 75%.

What about the inhibition at 100 µM (HaCaT cells) of the same compound?
Its inhibition at 100 µM is 41%.

For `C[Si](C)(C)COC(=O)CCCCC1CCSS1` (stereo not shown) [(trimethylsilyl)methyl 5-(1,2-dithiolan-3-yl)pentanoate, reference compound], which activity at 100 µM (HaCaT cells) is on record?
Its activity at 100 µM is 76%.

What about the inhibition at 100 µM (HaCaT cells) of the same compound?
Its inhibition at 100 µM is 42%.

Which activity at 100 µM (HaCaT cells) does the source give for `CC1(C(=O)O)CSSC1` [Compound 1, 4-methyl-1,2-dithiolane-4-carboxylic acid] here?
Its activity at 100 µM is 88%.

What about the inhibition at 100 µM (HaCaT cells) of the same compound?
Its inhibition at 100 µM is 74%.

What about the “% of DNA damage” value ([1]; 1 μM) of the same compound?
Its value is 80.7%.

And the “% protection” value ([1]; 1 μM)?
Its value is 19.3%.

And the “Mean TM (DNA damage)” value ([1]; 1 μM)?
Its value is 9.38.

What about the “% protection” value ([1]; 1 μM, listed as compound 1) of the same compound?
Its value is 20%.

And the “% of DNA damage” value ([1]; 10 μM)?
Its value is 69.4%.

And the “% protection” value ([1]; 10 μM)?
The value was 30.6%.

And the “Mean TM (DNA damage)” value ([1]; 10 μM)?
Its value is 8.06.

What about the “% protection” value ([1]; 10 μM, listed as compound 1) of the same compound?
Its value is 30%.

What does the source list for `CC1(C(N)=O)CSSC1` [Compound 2, 4-methyl-1,2-dithiolane-4-carboxamide]?
activity at 30 µM (HaCaT cells): 92%; inhibition at 30 µM (HaCaT cells): 86%; % of DNA damage ([1]; 10 μM): 37.1%; % protection ([1]; 10 μM): 63% and 62.9%; Mean TM (DNA damage) ([1]; 10 μM): 2.73

How did the activity at 30 µM (HaCaT cells) turn out when `CCCCCCCCOC(=O)C1(C)CSSC1` [Compound 9, octyl 4-methyl-1,2-dithiolane-4-carboxylate] was run?
Its activity at 30 µM is 80%.

And the inhibition at 30 µM (HaCaT cells)?
Its inhibition at 30 µM is 66%.

Which activity at 30 µM (HaCaT cells) does the source give for `CCCCCCCNC(=O)C1(C)CSSC1` [Compound 10, N-heptyl-4-methyl-1,2-dithiolane-4-carboxamide] here?
Its activity at 30 µM is 99%.

What about the inhibition at 30 µM (HaCaT cells) of the same compound?
Its inhibition at 30 µM is 98%.

How did the activity at 30 µM (HaCaT cells) turn out when `COC(=O)C(CCSC)NC(=O)C1(C)CSSC1` (stereo not shown) [Compound 12, methyl 2-{[(4-methyl-1,2-dithiolan-4-yl)carbonyl]amino}-4-(methylsulfanyl)butanoate] was run?
The activity at 30 µM was 78%.

What about the inhibition at 30 µM (HaCaT cells) of the same compound?
The inhibition at 30 µM was 61%.

What does the source list for `CC(=O)NCCSC(=O)C1(C)CSSC1` [Compound 13, S-[2-(acetylamino)ethyl]4-methyl-1,2-dithiolane-4-carbothioate]?
activity at 30 µM (HaCaT cells): 71%; inhibition at 30 µM (HaCaT cells): 50%

Which activity at 30 µM (HaCaT cells) does the source give for `CC1(C(=O)NCCO)CSSC1` [Compound 14, N-(2-hydroxyethyl)-4-methyl-1,2-dithiolane-4-carboxamide] here?
The activity at 30 µM was 78%.

And the inhibition at 30 µM (HaCaT cells)?
Its inhibition at 30 µM is 61%.

`CC1(C(=O)O)CSS(=O)(=O)C1` (stereo not shown) [Compound 24, 4-methyl-1,2-dithiolane-4-carboxylic acid 1,1-dioxide] was tested. Which activity at 30 µM (HaCaT cells) did it give?
Its activity at 30 µM is 91%.

And the inhibition at 30 µM (HaCaT cells)?
Its inhibition at 30 µM is 63%.

Which results are given for `CC1(C(N)=O)CS[S+]([O-])C1` (stereo not shown) [Compound 26, 4-methyl-1,2-dithiolane-4-carboxamide 1-oxide]?
activity at 30 µM (HaCaT cells): 117%; inhibition at 30 µM (HaCaT cells): 169%

What does the source list for `CC1(C(N)=O)CSS(=O)(=O)C1` (stereo not shown) [Compound 27, 4-methyl-1,2-dithiolane-4-carboxamide 1,1-dioxide]?
activity at 30 µM (HaCaT cells): 100%; inhibition at 30 µM (HaCaT cells): 101%

For `O=C(O)CCCCC1CCSS1` (stereo not shown) [lipoic acid, 1,2-dithiacyclopentane-3-valeric acid, reference compound], which activity at 100 µM (HaCaT cells) is on record?
The activity at 100 µM was 63%.

What about the inhibition at 100 µM (HaCaT cells) of the same compound?
Its inhibition at 100 µM is 13%.

And the “protection against the UV-DL-induced depletion of GSH” value (shortened to “protection … of GSH”) (HaCaT cells; pretreatment at 100 μM)?
Its value is “about 10%”.

And the “protection … of GSH” value (HaCaT cells; pretreatment at 500 μM)?
Its value is “about 83%”.

And the “protection … of GSH” value (HaCaT cells; pretreatment for 24 hours at 1 mM)?
The value was “approximately 100%”.
